Laboratory results taken from publication PMC9412300, “In Vitro Evaluation and Mitigation of Niclosamide’s Liabilities as a COVID-19 Treatment” (Vaccines, 2022).
Where two headings read alike, the source gives them in different places.

Assays:
[1] = system: SARS-CoV-2 WA1 (wildtype); assay: microbe, parasite or virus in culture; assay type: cell-based
[2] = system: SARS-CoV-2 B.1.1.7 (alpha); assay: microbe, parasite or virus in culture; assay type: cell-based
in vitro [3] = conditions: African green monkey
[4] = Cell viability (cell count per well) in H1437, 72 h compound exposure; assay type: cell-based, human; conditions: human
in vitro [5] = conditions: African green monkey; remark: listed apart in the source
H1437 cells = assay: Cell viability (cell count per well) in H1437, 72 h compound exposure; assay type: cell-based, human; conditions: H1437 infected with WA1, 72 h compound exposure
[6] = Cell viability in VeroE6, shortened 24 h infection assay; conditions: African green monkey
[7] = system: SARS-CoV-2 B.1.351 (beta); assay: microbe, parasite or virus in culture; assay type: cell-based; conditions: Severe acute respiratory syndrome coronavirus 2, Vero C1008; read-out: IC50 against B.1.351, 24 h infection
[8] = system: SARS-CoV-2 B.1.617.2 (delta); assay: microbe, parasite or virus in culture; assay type: cell-based; conditions: Severe acute respiratory syndrome coronavirus 2, Vero C1008; read-out: IC50 against B.1.617.2, 24 h infection
SARS-CoV-2 P.1 (gamma) = assay: microbe, parasite or virus in culture; assay type: cell-based; conditions: Severe acute respiratory syndrome coronavirus 2, Vero C1008; read-out: IC50 against P.1, 24 h infection
[9] = parameters: method as in PMID 26848771, PMID 31040114; conditions: cited from earlier work
[10] = parameters: method as in PMID 26848771, PMID 31040114; conditions: cited from earlier work; remark: listed apart in the source
[11] = parameters: method as in PMID 33842908; conditions: phase 1, 50 mg over 2.5 days inhalable/intranasal; cited from earlier work
SARS-CoV-2 = system: SARS-CoV-2; parameters: method as in PMID 35138402; conditions: phase 2, 2 g orally for 7 days; cited from earlier work
SARS-CoV = conditions: cited from earlier work
[12] = rats, oral administration at 5 mg/kg; cited from earlier work
[13] = Severe acute respiratory syndrome coronavirus 2, Vero C1008, 24 h; read-out: IC50 WA1 (protonophores)
[14] = Severe acute respiratory syndrome coronavirus 2, Vero C1008, 24 h; read-out: IC50 B.1.1.7 (protonophores)
[15] = H1437 cells infected with SARS-CoV-2 WA1, H1437 infected with WA1, 72 h compound exposure, read-out: H1437 (WA1) CC50

Row | Compound | CC50 (H1437 cells) [µM] | CC50 (VeroE6 cells) [µM] | also measured
1 | O=[N+]([O-])c1ccc(O)c([N+](=O)[O-])c1 [2,4 DNP] | – | – | IC50 [1, 13]: > 100 µM; IC50 [2, 14]: > 100 µM; CC50 (in vitro [3]): > 100 µM
2 | O=C(Nc1ccc([N+](=O)[O-])cc1Cl)c1ccccc1O [Compound 2] | – | – | CC50 at 72 h [4, 15]: 8.4 µM; CC50 (in vitro [5]): 5.59 µM
3 | Cc1ccc(O)c(C(=O)Nc2ccc([N+](=O)[O-])cc2Cl)c1 [Compound 3] | 3.06 | 6.28 | –
4 | COc1ccc(O)c(C(=O)Nc2ccc([N+](=O)[O-])cc2Cl)c1 [Compound 4] | 8.94 | 10.1 | –
5 | O=C(Nc1ccccc1Cl)c1cc(Cl)ccc1O [Compound 5] | 18.6 | 8.44 | –
6 | Cc1ccc(NC(=O)c2cc(Cl)ccc2O)c(Cl)c1 [Compound 6] | 6.05 | 4.59 | –
7 | COC(=O)c1ccc(NC(=O)c2cc(Cl)ccc2O)c(Cl)c1 [Compound 7] | – | – | CC50 at 72 h [4, 15]: > 20 µM; CC50 (in vitro [5]): 8.14 µM
8 | O=C(O)c1ccc(NC(=O)c2cc(Cl)ccc2O)c(Cl)c1 [Compound 8] | > 20 | > 20 | –
9 | O=C(Nc1ccc([N+](=O)[O-])cc1Cl)c1cccc(Cl)c1 [Compound 9] | – | – | CC50 at 72 h [4, 15]: > 20 µM; CC50 (in vitro [5]): > 20 µM
10 | COc1ccc(NC(=O)c2cc(Cl)ccc2O)c(Cl)c1 [Compound 10] | 18.9 | > 20 | –
11 | CC(C)(C)c1ccc(O)c(C(=O)Nc2ccc([N+](=O)[O-])cc2Cl)c1 [Compound 11] | – | – | CC50 at 72 h [4, 15]: 1.92 µM; CC50 (in vitro [5]): 3.41 µM
12 | COc1ccc(O)c(C(=O)Nc2ccc([N+](=O)[O-])cc2Cl)c1 [Compound 12] | 7.53 | 10.3 | –
13 | COC(=O)c1ccc(NC(=O)c2cc(C(C)(C)C)ccc2O)c(Cl)c1 [Compound 13] | > 20 | 14.6 | –
14 | CC(C)(C)c1ccc(O)c(C(=O)Nc2ccc(C(=O)O)cc2Cl)c1 [Compound 14] | > 20 | 14.2 | –
15 | CC(C)(C)c1ccc(O)c(C(=O)Nc2ccc(C(=O)O)cc2F)c1 [Compound 15] | > 20 | > 20 | –
16 | Cc1cc(C(=O)O)ccc1NC(=O)c1cc(C(C)(C)C)ccc1O [Compound 16] | > 20 | > 20 | –
17 | CC(C)(C)c1cc(C(=O)Nc2ccc(NS(C)(=O)=O)cc2Cl)c(O)c(C(C)(C)C)c1 [Compound 18] | > 20 | > 20 | –
18 | CC(C)(C)c1cc(C(=O)Nc2ccc(N)cc2Cl)c(O)c(C(C)(C)C)c1 [Compound 19] | > 20 | 17.6 | –

Row | Compound | CC50 (H1437 cells) [µM] | CC50 (VeroE6 cells) [µM] | also measured
19 | Cc1cc(NC(=O)c2cc(C(C)(C)C)cc(C(C)(C)C)c2O)ccc1C(=O)O [Compound 20] | > 20 | > 20 | –
20 | COC(=O)c1ccc(NC(=O)c2cc(C3CCCCC3)ccc2O)c(Cl)c1 [Compound 21] | > 20 | > 20 | –
21 | O=C(O)c1ccc(NC(=O)c2cc(C3CCCCC3)ccc2O)c(Cl)c1 [Compound 22] | > 20 | > 20 | –
22 | COC(=O)c1ccc(NC(=O)c2cc(C(F)(F)F)ccc2O)c(C)c1 [Compound 23] | > 20 | > 20 | –
23 | N#Cc1ccc(NC(=O)c2cc(Cl)ccc2O)c(Cl)c1 [Compound 24] | – | – | CC50 at 72 h [4, 15]: 0.88 µM; CC50 (in vitro [5]): 4.72 µM
24 | COC(=O)c1ccc(NC(=O)c2cccc(C(C)(C)C)c2O)c(Cl)c1 [Compound 25] | > 20 | > 20 | –
25 | CC(C)(C)c1cc(C(=O)Nc2ccc(C(=O)O)cc2Cl)c(O)c(C(C)(C)C)c1 [Compound 26] | > 20 | > 20 | –
26 | Cc1cc(NC(=O)c2cc(C(C)(C)C)cc(C(C)(C)C)c2O)ccc1C(=O)O [Compound 27] | – | > 20 | –
27 | COc1ccc(O)c(C(=O)Nc2ccc(C(=O)O)cc2C)c1 [Compound 28] | > 20 | > 20 | –
28 | CC(C)(C)c1cccc(C(=O)Nc2ccc(C(=O)O)cc2Cl)c1O [Compound 30] | > 20 | > 20 | –
29 | CC(C)(C)c1cccc(C(=O)Nc2ccc([N+](=O)[O-])cc2Cl)c1O [Compound 31] | 1.11 | 7.21 | –
30 | CC(C)(C)c1cccc(C(=O)Nc2ccc(N)cc2Cl)c1O [Compound 32] | > 20 | > 20 | –
31 | CC(C)(C)c1cccc(C(=O)Nc2ccc(NS(C)(=O)=O)cc2Cl)c1O [Compound 33] | > 20 | > 20 | –
32 | O=C(Nc1ccc(Br)cc1Cl)c1cc(Cl)ccc1O [Compound 34] | 3.62 | 5.47 | –
33 | O=c1oc2ccccc2c(O)c1Cc1c(O)c2ccccc2oc1=O [Dicumarol, dicumarol] | – | – | IC50 [1, 13]: > 100 µM; IC50 [2, 14]: > 100 µM; CC50 at 25 h [6]: > 100 µM
34 | N#CC(C#N)=NNc1ccc(OC(F)(F)F)cc1 [FCCP] | – | – | IC50 ([1]; Severe acute respiratory syndrome coronavirus 2, Vero C1008, 24 h, read-out: IC50 WA1 (protonophores)): 35 µM; IC50 ([2]; Severe acute respiratory syndrome coronavirus 2, Vero C1008, 24 h, read-out: IC50 B.1.1.7 (protonophores)): 13 µM; CC50 at 25 h [6]: 43 µM
35 | O=C(Nc1ccc([N+](=O)[O-])cc1Cl)c1cc(Cl)ccc1O [Niclosamide] | – | – | CC50 at 72 h ([4]; H1437 cells infected with SARS-CoV-2 B.1.1.7, H1437 infected with B.1.1.7, 72 h compound exposure, read-out: H1437 (B.1.1.7) CC50): 0.438 µM; CC50 at 72 h [4, 15]: 17.1 µM; IC50 [1, 13]: 3.5 µM; IC50 ([1]; Severe acute respiratory syndrome coronavirus 2, Vero C1008; read-out: IC50 against WA1, 24 h infection): 1.66 µM; IC50 [2, 14]: 0.25 µM; IC50 ([2]; Severe acute respiratory syndrome coronavirus 2, Vero C1008; read-out: IC50 against B.1.1.7, 24 h infection): 0.298 µM; IC50 [7]: 0.44 ± 0.021 µM; IC50 [8]: 0.774 ± 0.058 µM; IC50 (SARS-CoV-2 P.1 (gamma)): 0.399 ± 0.034 µM; oral bioavailability [9]: < 10%; water solubility [10]: poor; participants with moderate lung irritation [11]: 59%; effect on the duration of the contagious period of SARS-CoV-2 (SARS-CoV-2): no statistically significant effect; inhibition of SARS-CoV viral replication in vitro (SARS-CoV): low micromolar potency; CC50 (in vitro [5]): 1.05 µM; maximal serum concentration (Cmax) [12]: 354 ± 152 ng/mL; CC50 at 25 h ([6]; VeroE6 cells infected with SARS-CoV-2, CC50 (protonophores), VeroE6, 24 h infection conditions, starting concentration 100 μM): 66 µM
36 | O=C(Nc1cc(Cl)cc(Cl)c1O)c1c(O)c(Cl)cc(Cl)c1Cl [Oxyclozanide, oxyclozanide] | – | – | IC50 [1, 13]: 64 µM; IC50 [2, 14]: 20 µM; CC50 at 25 h [6]: > 100 µM
